{
  "source": "patent US20240124456A1",
  "about": "“AZA-ERGOLINE DERIVATIVE AND PREPARATION METHOD THEREFOR AND APPLICATION THEREOF” (SHANGHAITECH UNIVERSITY, priority 2021, published 2024)",
  "key": {"[1]": {"biological_target": "T1, 5-HT2A receptor (Homo sapiens (Human), UniProt P28223)", "T1 sequence (P28223 whole entry)": "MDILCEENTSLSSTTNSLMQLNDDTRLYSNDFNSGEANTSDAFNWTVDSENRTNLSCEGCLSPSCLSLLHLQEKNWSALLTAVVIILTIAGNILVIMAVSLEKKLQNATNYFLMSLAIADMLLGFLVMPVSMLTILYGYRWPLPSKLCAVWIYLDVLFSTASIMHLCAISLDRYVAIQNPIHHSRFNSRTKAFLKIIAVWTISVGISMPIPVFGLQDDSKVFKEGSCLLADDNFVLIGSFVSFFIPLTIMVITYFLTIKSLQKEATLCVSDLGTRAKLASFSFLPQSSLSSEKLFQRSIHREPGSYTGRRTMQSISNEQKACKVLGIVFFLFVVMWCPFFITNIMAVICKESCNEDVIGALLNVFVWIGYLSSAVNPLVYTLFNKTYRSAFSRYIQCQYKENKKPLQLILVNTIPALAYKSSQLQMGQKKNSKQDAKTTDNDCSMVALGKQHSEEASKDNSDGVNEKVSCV", "assay": "Radioligand competition binding, affinity for 5-HT2A receptor ([3H]-ketanserin)", "procedure": "The affinity of the compounds of the present invention for the 5-HT2A receptors was determined by the method of radioligand competition experiment. In the first step, a cell membrane component containing specific 5-HT2A receptor was prepared. A 10 cm dish was used for transfection with 10 ng of the 5-HT2A receptor and 40 μL of PEI. […] A vacuum pump was used to suck off the culture medium, 3 mL of lysis buffer was added to each well, and the cells were placed in a 4° C. freezer for 10 minutes. After the cells were detached, the cells were transferred to a 15 mL centrifuge tube and centrifuged at 1500 rpm for 5 minutes at 4° C., and the supernatant was discarded. The cell pellet was transferred to a tissue homogenizer, and 3 mL of lysis buffer was added and fully ground until the cells were broken. Then, cell suspension was equally divided into several EP tubes, centrifuged at 4° C. and 12000 rpm for 5 min, and the supernatant was discarded. The precipitate was the cell membrane component containing the 5-HT2A receptor. […] First, a standard binding buffer was added to the cell membrane component containing the 5-HT2A receptor, and the cell membrane was disrupted and resuspended with an electric tissue homogenizer. 30 μL of membrane protein suspension was added to each well of a 96-well plate. Then, 30 μL of different drugs were added to the 96-well plate from left to right to ensure that the final drug concentrations were 10^−5 M, 10^−6 M, 10^−7 M, 10^−8 M, 10^−9 M and 0 M, with two replicates per treatment. Next, 30 μL [^3H]-ketanserin was added to each well of the 96-well plate. The plate was incubated for 2 hours at room temperature in the dark. Detection. The machine reading value reflected the amount of [^3H]-ketanserin bound on the membrane, and after further data processing, the affinity Ki value of different compounds for 5-HT2A receptor was obtained."}, "[2]": {"biological_target": "T2, dopamine D2 receptors (Homo sapiens (Human), UniProt P14416)", "T2 sequence (P14416 whole entry)": "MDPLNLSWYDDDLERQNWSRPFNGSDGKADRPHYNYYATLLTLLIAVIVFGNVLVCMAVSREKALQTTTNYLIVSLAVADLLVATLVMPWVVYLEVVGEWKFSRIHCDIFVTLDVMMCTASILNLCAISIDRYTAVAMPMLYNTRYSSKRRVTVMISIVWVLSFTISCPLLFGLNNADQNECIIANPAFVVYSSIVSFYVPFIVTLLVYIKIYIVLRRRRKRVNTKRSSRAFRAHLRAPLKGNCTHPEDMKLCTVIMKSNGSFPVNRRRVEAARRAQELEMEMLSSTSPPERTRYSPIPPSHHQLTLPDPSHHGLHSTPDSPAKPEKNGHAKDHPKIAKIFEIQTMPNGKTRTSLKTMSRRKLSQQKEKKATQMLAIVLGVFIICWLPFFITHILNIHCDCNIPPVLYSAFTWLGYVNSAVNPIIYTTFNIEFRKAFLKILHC", "assay": "Radioligand competition binding, affinity for dopamine D2 receptors ([3H]-Methylspiperone)", "procedure": "A 10 cm diameter dish was used for transfection with 10 ng of the dopamine D2 receptors and 40 μL of PEI. After 48 hours, the 10 cm dish was taken out from the cell culture room and the cultured cells had expressed the dopamine D2 receptors. A vacuum pump was used to suck off the culture medium, 3 mL of lysis buffer (50 mM Tris hydrochloric acid buffer, pH 7.4) was added to each well, and the cells were placed in a 4° C. freezer for 10 minutes. After the cells were detached, the cells were transferred to a 15 mL centrifuge tube and centrifuged at 1500 rpm for 5 minutes at 4° C., and the supernatant was discarded. The cell pellet was transferred to a tissue homogenizer, and 3 mL of lysis buffer was added and fully ground until the cells were broken. Then, cell suspension was equally divided into several EP tubes, centrifuged at 4° C. and 12000 rpm for 5 min, and the supernatant was discarded. The precipitate was the cell membrane component containing the dopamine D2 receptors and stored at −80° C.\nFirst, a standard binding buffer (50 mM HEPES, 50 mM NaCl, 5 mM MgCl2, 0.5 mM EDTA, pH 7.4) was added to the cell membrane component containing the dopamine D2 receptors, and the cell membrane was disrupted and resuspended with an electric tissue homogenizer. 30 μL of membrane protein suspension was added to each well of a 96-well plate. Then, 30 μL of different drugs were added to the 96-well plate from left to right to ensure that the final drug concentrations were 10^−5 M, 10^−6 M, 10^−7 M, 10^−8 M, 10^−9 M and 0 M, with two replicates per treatment. Next, 30 μL [^3H]-N-Methylspiperone was added to each well of the 96-well plate, and the plate was incubated for 2 hours at room temperature in the dark. The unbound isotopes were removed by Whatman GF/C filter membrane and vacuum pump, and the isotopes bound to the receptors were detected by MicroBeta isotope liquid scintillation counter.\nThe affinity of the compounds of the present invention for the dopamine D2 receptors was determined by the method of radioligand competition experiment. In the first step, a cell membrane component containing specific dopamine D2 receptors was prepared. A10 cm dish was used for transfection with 10 ng of the dopamine D2 receptors and 40 μL of PEI. After 48 hours, the 10 cm dish was taken out from the cell culture room and the cultured cells had expressed the dopamine D2 receptors. A vacuum pump was used to suck off the culture medium, 3 mL of lysis buffer was added to each well, and the cells were placed in a 4° C. freezer for 10 minutes. After the cells were detached, the cells were transferred to a 15 mL centrifuge tube and centrifuged at 1500 rpm for 5 minutes at 4° C., and the supernatant was discarded. The cell pellet was transferred to a tissue homogenizer, and 3 mL of lysis buffer was added and fully ground until the cells were broken. Then, cell suspension was equally divided into several EP tubes, centrifuged at 4° C. and 12000 rpm for 5 min, and the supernatant was discarded. The precipitate was the cell membrane component containing the dopamine D2 receptors. […] First, a standard binding buffer was added to the cell membrane component containing the dopamine D2 receptors, and the cell membrane was disrupted and resuspended with an electric tissue homogenizer. 30 μL of membrane protein suspension was added to each well of a 96-well plate. Then, 30 μL of different drugs were added to the 96-well plate from left to right to ensure that the final drug concentrations were 10^−5 M, 10^−6 M, 10^−7 M, 10^−8 M, 10^−9 M and 0 M, with two replicates per treatment. Next, 30 μL [^3H]-Methylspiperone was added to each well of the 96-well plate. The plate was incubated for 2 hours at room temperature in the dark. Detection. The machine reading value reflected the amount of [^3H]-Methylspiperone bound on the membrane, and after further data processing, the affinity Ki value of different compounds for dopamine D2 receptors was obtained."}, "[3]": {"biological_target": "T2, dopamine D2 receptors", "assay": "G protein Gαi1-γ9 dissociation BRET, dopamine D2 receptor functional activity", "assay_type": "cell-based", "procedure": "To examine downstream G protein signaling mediated by dopamine D2 receptors, 6 cm dish was used for transfection with 1μg of dopamine D2 receptors, 1μg of Gαi1 fused to seaweed luciferase (Gαi1-Rluc), 1 μg of Gβ3, 1 μg of Gγ9 fused to green fluorescent protein (Gγ9-GFP) and 16 μL of transfection reagent PEI. […] On the third day, the drugs were added for test.\n(§1) To examine downstream G-protein signaling pathway mediated by dopamine D2 receptors, on the first day, 6 cm dish was used for transfection with 1μg of dopamine D2 receptors, 1μg of Gαi1 containing C-terminal seaweed luciferase (GGαi1-Rluc), 1 μg of […], 1 μg of Gγ9 containing C-terminal green fluorescent protein (Gγ9-GFP) and 16 μL of PEI. At the same time, in order to examine the downstream f3-arrestin2 signaling pathway mediated by dopamine D2 receptors, on the first day, 6 cm dish was used for transfection with 500 μg of dopamine D2 receptors containing C-terminal seaweed luciferase (D2-Rluc), 500 μg of G protein-coupled receptor kinase 2 (GRK2), 2500 μg of […] containing N-terminal green fluorescent protein (GFP2-ARRB2) and 14 μL of PEI. The next day, the overgrown cells were digested and plated a 96-well plate at the amount of cells contained in a 6 cm culture dish with overgrown cells, and 100 μL of culture medium was added to each well. On the third day, the drugs were added for test. The 96-well plate was taken out from the cell culture room to remove the culture medium, 40 μL of the substrate coelenterazine 400a (final concentration of 5 μM) was added to each well, and then 20 μL of different drugs were added in turn from left to right to ensure that the final concentration of the drugs decreased gradually from bottom to top, and each treatment was repeated twice. Finally, the prepared samples were loaded on machine for test. The machine reading value reflected the intracellular β-arrestin2 on the membrane and the dissociation of G protein trimer. The former indicated the degree of activation of the β-arrestin2 signaling pathway downstream of the dopamine D2 receptors, and the latter indicated the degree of activation of the G protein signaling pathway downstream of the dopamine D2 receptors."}, "[4]": {"biological_target": "T2, dopamine D2 receptors", "assay": "β-arrestin2 recruitment BRET, dopamine D2 receptor functional activity", "assay_type": "cell-based", "procedure": "To examine the downstream f3-arrestin2 signaling pathway mediated by dopamine D2 receptors, 6 cm dish was used for transfection with 500 […] of dopamine D2 receptors fused to seaweed luciferase (D2-Rluc), 500 μg of G protein-coupled receptor kinase 2 (GRK2), 2500 μg of β-arrestin2 fused to green fluorescent protein (GFP2-ARRB2) and 14 μL of transfection reagent PEI. The next day, the overgrown cells were digested and plated a 96-well plate at the amount of cells contained in a 6 cm culture dish with overgrown cells, and 100 μL of culture medium was added to each well. On the third day, the drugs were added for test.\nas §1"}, "[5]": {"system": "C57B6 male mice", "assay": "Freezing behavior test", "assay_type": "in vivo", "settings": "10 mg/kg", "procedure": "Experimental method: The experimental animals were C57B6 male mice, n=8 in each group. Mice were first injected with different compounds, and after a certain period of time (30 min or 60 min), the mice were in an upright and unnatural state by placing their forelimbs on a high glass hanging rod (about 5 cm from the ground). Then the time for the mice to maintain this state was measured, and the length of time was used to determine the freezing effect of the drug on the mice."}, "[6]": {"biological_target": "T1, 5-HT2A receptor", "settings": "Blair, Drugs, 2020; cited from earlier work"}},
  "data": [
    {"smiles": "O=c1ccc2ccc(OCCCCN3CCN4c5cccc6[nH]cc(c56)CC4C3)cc2[nH]1", "note": "(stereo not drawn) [Compound I-2, 7-(4(4,6,6a,7,9,10-hexahydro-8H-pyrazino[1,2-a]pyrrolo[4,3,2-de]quinolin-8-yl)butoxy)quinolin-2(1H)-one]", "values": [
      {"measurement": "affinity for 5-HT2A receptor (in words)", "setting": "[1]", "value": "very weak affinity"}
    ]},
    {"smiles": "CN(C)C(=O)N[C@H]1CC[C@H](CCN2CCN3c4cccc5[nH]cc(c45)CC3C2)CC1", "note": "(stereo partly drawn) [Compound I-10, 3-(4-(2-(4,6,6a,7,9,10-hexahydro-8H-pyrazino[1,2-a]pyrrolo[4,3,2-de]quinolin-8-yl)ethyl)trans-cyclohexyl)-1,1-dimethylurea]", "values": [
      {"measurement": "Affinity pKi ± SEM", "setting": "[2]", "value": "(7.30 ± 0.08)"},
      {"measurement": "Ki", "setting": "[2]", "value": 50.6, "unit": "nM"},
      {"measurement": "EC50", "setting": "[3]; HEK-293T, I-1 to 19 n=3, I-20 to 27 single determination, read-out: Gai1 BRET EC50", "value": 3.89, "unit": "nM"},
      {"measurement": "Emax", "setting": "[3]; read-out: Gai1 BRET Emax % ± SEM", "value": 80, "unit": "%"},
      {"measurement": "EC50", "setting": "[4]; HEK-293T, I-1 to 19 n=3, I-20 to 27 single determination, read-out: β-arrestin2 BRET EC50", "value": 6.61, "unit": "nM"},
      {"measurement": "Emax", "setting": "[4]; read-out: β-arrestin2 BRET Emax % ± SEM", "value": 84, "unit": "%"},
      {"measurement": "affinity for 5-HT2A receptor (in words)", "setting": "[1]", "value": "very weak affinity"},
      {"measurement": "Ki", "setting": "[1]; [3H]-ketanserin, HEK-293T membranes", "value": 2370, "unit": "nM"}
    ]},
    {"smiles": "O=C(CCCN1CCC(O)(c2ccc(Cl)cc2)CC1)c1ccc(F)cc1", "note": "[Haloperidol, reference compound]", "values": [
      {"measurement": "Freezing time", "setting": "[5]; 30 minutes after administration", "value": "61.05 ± 3.239", "unit": "s"},
      {"measurement": "Freezing time", "setting": "[5]; 60 minutes after administration", "value": "53.19 ± 2.443", "unit": "s"}
    ]},
    {"smiles": "CN1CCN2c3c(cccc31)[C@@H]1CN(CCCC(=O)c3ccc(F)cc3)CC[C@@H]12", "note": "[Lumateperone]", "values": [
      {"measurement": "affinity for 5-HT2A receptors relative to that for D2 receptors", "setting": "[6]", "value": "about 60 times"}
    ]}
  ]
}
